Results on 32 compounds are retold here after patent publication US9382197B2, “Substituted hydroxamic acids and uses thereof” (Millennium Pharmaceuticals, Inc., priority 2010, dated 2016).

Molecules are shown by their SMILES.

One assay concerns the target T1, purified human HDAC6 (Homo sapiens, UniProt Q9UBN7).
T1 construct: purchased BPS Bioscience 5006
T1 sequence (Q9UBN7 1-1215): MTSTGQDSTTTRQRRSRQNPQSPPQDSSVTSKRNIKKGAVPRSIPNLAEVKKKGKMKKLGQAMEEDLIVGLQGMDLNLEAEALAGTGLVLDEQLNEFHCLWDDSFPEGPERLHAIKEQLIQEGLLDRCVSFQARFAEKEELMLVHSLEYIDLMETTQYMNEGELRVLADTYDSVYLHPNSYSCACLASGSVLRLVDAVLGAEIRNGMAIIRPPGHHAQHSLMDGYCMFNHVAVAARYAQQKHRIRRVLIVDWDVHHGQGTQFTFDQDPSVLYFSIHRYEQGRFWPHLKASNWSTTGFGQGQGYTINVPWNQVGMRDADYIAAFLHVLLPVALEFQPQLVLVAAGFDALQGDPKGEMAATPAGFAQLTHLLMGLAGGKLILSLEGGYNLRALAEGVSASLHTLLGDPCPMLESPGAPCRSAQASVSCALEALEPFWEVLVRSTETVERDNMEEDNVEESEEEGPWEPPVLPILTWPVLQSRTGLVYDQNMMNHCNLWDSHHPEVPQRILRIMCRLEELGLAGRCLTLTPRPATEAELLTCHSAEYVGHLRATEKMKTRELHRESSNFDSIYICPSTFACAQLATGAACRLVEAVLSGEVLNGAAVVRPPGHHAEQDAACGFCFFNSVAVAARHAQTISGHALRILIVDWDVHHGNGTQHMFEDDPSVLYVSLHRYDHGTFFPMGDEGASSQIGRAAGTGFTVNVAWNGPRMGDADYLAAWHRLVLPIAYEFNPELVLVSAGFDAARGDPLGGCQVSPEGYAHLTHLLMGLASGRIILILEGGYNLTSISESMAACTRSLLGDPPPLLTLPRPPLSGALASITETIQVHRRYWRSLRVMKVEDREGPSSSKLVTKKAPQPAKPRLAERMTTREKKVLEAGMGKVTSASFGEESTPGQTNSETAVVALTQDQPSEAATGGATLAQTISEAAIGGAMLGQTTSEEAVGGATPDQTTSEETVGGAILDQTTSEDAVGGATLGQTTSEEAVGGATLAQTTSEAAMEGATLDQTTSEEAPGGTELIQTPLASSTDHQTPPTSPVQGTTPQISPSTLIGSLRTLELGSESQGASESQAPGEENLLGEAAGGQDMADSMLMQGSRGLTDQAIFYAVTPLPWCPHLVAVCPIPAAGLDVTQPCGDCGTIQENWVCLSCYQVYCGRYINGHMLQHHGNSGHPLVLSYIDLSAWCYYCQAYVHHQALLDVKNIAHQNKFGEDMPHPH
Briefly: HDAC6 Enzyme Assay. The assay is classed as biochemical. Conditions: bin: greater than 500 nM and less than 1 μM (lower bound in nM, upper bound in μM). The procedure, abridged: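 Purified human HDAC6 incubated 1 h at 30 °C with Ac-Arg-Gly-Lys(Ac)-AMC and compound; trichostatin A stop, trypsin release of AMC, fluorescence Ex 340/Em 460 nm. IC50 from concentration–response relative to DMSO.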
`CC(NS(=O)(=O)c1ccc2nsnc2c1)c1ccc(C(=O)NO)cc1` (centres unmarked) [Compound I-272, 4-{1-[(2,1,3-benzothiadiazol-5-ylsulfonyl)amino]ethyl}-N-hydroxybenzamide] registered an IC50 of 500 to 1000 nM.

In turn, `CC(NC(=O)c1c2c(nn1C)CCCC2)c1cccc(C(=O)NO)c1` (centres unmarked) [Compound I-101, N-(1-{3-[(hydroxyamino)carbonyl]phenyl}ethyl)-2-methyl-4,5,6,7-tetrahydro-2H-indazole-3-carboxamide] gave a half-maximal inhibitory concentration (IC50) of 500 to 1000 nM.

On to `CC(C)C(NC(=O)c1ccnc2ccccc12)c1ccc(C(=O)NO)cc1` (centres unmarked) [Compound I-246, N-(1-{4-[(hydroxyamino)carbonyl]phenyl}-2-methylpropyl)quinoline-4-carboxamide], for which the IC50 is 500 to 1000 nM. `CC(NC(=O)NC(C)(C)C)c1ccc(C(=O)NO)cc1` (centres unmarked) [Compound I-339, 4-(1-{[(tert-butylamino)carbonyl]amino}ethyl)-N-hydroxybenzamide] registered a 50% inhibitory concentration (IC50) of 500 to 1000 nM.

The assay is the same for the next values; noted with them: bin: greater than 1 μM.
For the compound `CC(C)(C)C(NC(=O)C1CCCC1)c1ccc(C(=O)NO)cc1` (centres unmarked) [Compound I-373, 4-{1-[(cyclopentylcarbonyl)amino]-2,2-dimethylpropyl}-N-hydroxybenzamide], the IC50 was above 1000 nM.

For `CC(NC(=O)CC12CC3CC(CC(C3)C1)C2)c1ccc(C(=O)NO)cc1` (centres unmarked) [Compound I-212], the IC50 is above 1000 nM. With `CC(NC(=O)Cc1c(F)cccc1Cl)c1ccc(C(=O)NO)cc1` (centres unmarked) [Compound I-24, 4-(1-{[(2-chloro-6-fluorophenyl)acetyl]amino}ethyl)-N-hydroxybenzamide], the IC50 is above 1000 nM. The same measure, in the same setting: as for `C[C@@H](NC(=O)C12CC3CC(CC(C3)C1)C2)c1cccc(C(=O)NO)c1` [Compound I-312, N-((1R)-1-{3-[(hydroxyamino)carbonyl]phenyl}ethyl)adamantane-1-carboxamide], the figure is above 1000 nM; as for `CC(NC(=O)c1cnnc2ccccc12)c1ccc(C(=O)NO)cc1` (centres unmarked) [Compound I-56, N-(1-{4-[(hydroxyamino)carbonyl]phenyl}ethyl)cinnoline-4-carboxamide], above 1000 nM; as for `Cc1noc(C)c1C(=O)NC(c1ccc(C(=O)NO)cc1)C(C)(C)C` (centres unmarked) [Compound I-200, N-(1-{4-[(hydroxyamino)carbonyl]phenyl}-2,2-dimethylpropyl)-3,5-dimethylisoxazole-4-carboxamide], above 1000 nM.

The same assay, now with this note: purified human HDAC6, substrate Ac-Arg-Gly-Lys(Ac)-AMC, 1 hour at 30° C.; reported as bins.
Turning to `CCC[C@@H](NC(=O)NC(C)(C)C)c1ccc(C(=O)NO)cc1` [Compound I-380, 4-((1R)-1-{[(tert-butylamino)carbonyl]amino}butyl)-N-hydroxybenzamide], the IC50 fell in the range of 100 to 500 nM. `CC(NC(=O)c1cn2ccccc2n1)c1ccc(C(=O)NO)cc1` (centres unmarked) [Compound I-125, N-(1-{4-[(hydroxyamino)carbonyl]phenyl}ethyl)imidazo[1,2-a]pyridine-2-carboxamide] registered an IC50 below 100 nM. Still for that read-out and setting: for `CC(C)(C)C(NC(=O)c1cc2ccccc2o1)c1ccc(C(=O)NO)cc1` (centres unmarked) [Compound I-4, N-(1-{4-[(hydroxyamino)carbonyl]phenyl}-2,2-dimethylpropyl)-1-benzofuran-2-carboxamide] the value was below 100 nM. The same measure, in the same setting: for `CC(C)[C@@H](NC(=O)C12CC3CC(CC(C3)C1)C2)c1ccc(C(=O)NO)cc1` [Compound I-328, N-((1R)-1-{4-[(hydroxyamino)carbonyl]phenyl}-2-methylpropyl)adamantane-1-carboxamide] the value was below 100 nM. The same measure, in the same setting: as for `Cc1cccc(CNC(=O)NC(C)c2ccc(C(=O)NO)cc2)c1` (centres unmarked) [Compound I-316, N-hydroxy-4-[1-({[(3-methylbenzyl)amino]carbonyl}amino)ethyl]benzamide], the figure is 100 to 500 nM; as for `Cc1ccccc1CNC(=O)NC(C)c1ccc(C(=O)NO)cc1` (centres unmarked) [Compound I-76, N-hydroxy-4-[1-({[(2-methylbenzyl)amino]carbonyl}amino)ethyl]benzamide], 100 to 500 nM. Turning to `Cc1ccc(NC(=O)NC(C)c2ccc(C(=O)NO)cc2)cc1C` (centres unmarked) [Compound I-55, 4-[1-({[(3,4-dimethylphenyl)amino]carbonyl}amino)ethyl]-N-hydroxybenzamide], the IC50 is below 100 nM. On the same count and under the same terms, as for `CC(NC(=O)Nc1ccc(C(F)(F)F)cc1)c1ccc(C(=O)NO)cc1` (centres unmarked) [Compound I-399, N-hydroxy-4-{1-[({[4-(trifluoromethyl)phenyl]amino}carbonyl)amino]ethyl}benzamide], the figure is below 100 nM; as for `CC(NC(=O)c1cc2ccccc2n1C)c1cccc(C(=O)NO)c1` (centres unmarked) [Compound I-219, N-(1-{3-[(hydroxyamino)carbonyl]phenyl}ethyl)-1-methyl-1H-indole-2-carboxamide], 100 to 500 nM; as for `C[C@@H](NC(=O)c1cc2ccccc2o1)c1ccc(C(=O)NO)cc1` [Compound I-317, N-((1R)-1-{4-[(hydroxyamino)carbonyl]phenyl}ethyl)-1-benzofuran-2-carboxamide], below 100 nM. With `CC(C)Cc1cc(C(=O)NC(C)c2ccc(C(=O)NO)cc2)no1` (centres unmarked) [Compound I-286, N-(1-{4-[(hydroxyamino)carbonyl]phenyl}ethyl)-5-isobutylisoxazole-3-carboxamide], the IC50 was below 100 nM.

Consider `CC(C)C(NC(=O)c1ccn(C)n1)c1ccc(C(=O)NO)cc1` (centres unmarked) [Compound I-389, N-(1-{4-[(hydroxyamino)carbonyl]phenyl}-2-methylpropyl)-1-methyl-1H-pyrazole-3-carboxamide], for which the IC50 was below 100 nM.

The compound `Cc1cc(C(=O)NC(c2ccc(C(=O)NO)cc2)C(C)(C)C)nn1C` (centres unmarked) [Compound I-260, N-(1-{4-[(hydroxyamino)carbonyl]phenyl}-2,2-dimethylpropyl)-1,5-dimethyl-1H-pyrazole-3-carboxamide] came in with an IC50 of 100 to 500 nM. On the same count and under the same terms, for `O=C(NO)c1ccc([C@H](NC(=O)c2cc3ccccc3o2)C(F)(F)F)cc1` [Compound I-400, N-((1S)-2,2,2-trifluoro-1-{4-[(hydroxyamino)carbonyl]phenyl}ethyl)-1-benzofuran-2-carboxamide] the value was below 100 nM; for `Cc1cc(C(=O)NC(c2ccc(C(=O)NO)cc2)C(C)(C)C)c(C)[nH]1` (centres unmarked) [Compound I-310, N-(1-{4-[(hydroxyamino)carbonyl]phenyl}-2,2-dimethylpropyl)-2,5-dimethyl-1H-pyrrole-3-carboxamide], 100 to 500 nM; for `Cn1nc(C(C)(C)C)cc1C(=O)NC(c1ccc(C(=O)NO)cc1)C(C)(C)C` (centres unmarked) [Compound I-291, 3-tert-butyl-N-(1-{4-[(hydroxyamino)carbonyl]phenyl}-2,2-dimethylpropyl)-1-methyl-1H-pyrazole-5-carboxamide], 100 to 500 nM. Same read-out and setting: for `CC(NC(=O)Nc1cccc2ccccc12)c1ccc(C(=O)NO)cc1` (centres unmarked) [Compound I-6, N-hydroxy-4-(1-{[(1-naphthylamino)carbonyl]amino}ethyl)benzamide] the value was below 100 nM; for `CC(C)[C@H](NC(=O)c1cc2ccccc2s1)c1ccc(C(=O)NO)cc1` [Compound I-67, N-((1S)-1-{4-[(hydroxyamino)carbonyl]phenyl}-2-methylpropyl)-1-benzothiophene-2-carboxamide], 100 to 500 nM. On to `Cc1ccc(F)c(C(=O)NC(C)c2ccc(C(=O)NO)cc2)c1` (centres unmarked) [Compound I-8, 2-fluoro-N-(1-{4-[(hydroxyamino)carbonyl]phenyl}ethyl)-5-methylbenzamide], for which the IC50 is below 100 nM. The same measure, in the same setting: as for `CC(NS(=O)(=O)c1cccc2cccnc12)c1ccc(C(=O)NO)cc1` (centres unmarked) [Compound I-363, N-hydroxy-4-{1-[(quinolin-8-ylsulfonyl)amino]ethyl}benzamide], the figure is 100 to 500 nM. The same measure, in the same setting: as for `CC(NC(=O)Nc1ccccc1F)c1ccc(C(=O)NO)cc1` (centres unmarked) [Compound I-74, 4-[1-({[(2-fluorophenyl)amino]carbonyl}amino)ethyl]-N-hydroxybenzamide], the figure is below 100 nM. For the compound `CC(C)[C@@H](NC(=O)c1cc2ccccc2s1)c1ccc(C(=O)NO)cc1` [Compound I-214, N-((1R)-1-{4-[(hydroxyamino)carbonyl]phenyl}-2-methylpropyl)-1-benzothiophene-2-carboxamide], the half-inhibitory concentration (IC50) is below 100 nM.
